Where two headings read alike, the source gives them in different places.
Key:
[1] = biological target: human CB1 H270A mutant receptor (Homo sapiens, UniProt P21554, H270A); assay: biochemical; type: binding
[2] = biological target: T1, human CB1 wild-type (WT) receptor (Homo sapiens, UniProt P21554); assay: Competition binding with [3H]SR141716A, wild-type CB1 membranes
[3] = biological target: T2, human CB1 F268W mutant receptor (Homo sapiens, UniProt P21554, F268W); assay: biochemical; type: binding; settings: for loss in affinity relative to wild-type receptor: F268W receptor vs WT
[4] = biological target: T3, human CB1 I271A mutant receptor (Homo sapiens, UniProt P21554, I271A); assay: biochemical; type: binding; settings: for loss in affinity relative to wild-type receptor: I271A receptor vs WT
[5] = biological target: T4, human CB1 P269A mutant receptor (Homo sapiens, UniProt P21554, P269A); assay: biochemical; type: binding
[6] = biological target: T1, human CB1 wild-type (WT) receptor; settings: cited from earlier work
[7] = biological target: T4, human CB1 P269A mutant receptor; settings: cited from earlier work
[8] = biological target: T2, human CB1 F268W mutant receptor; settings: cited from earlier work
[9] = biological target: T3, human CB1 I271A mutant receptor; settings: cited from earlier work

Chain of human CB1 H270A mutant receptor (P21554 whole entry H270A): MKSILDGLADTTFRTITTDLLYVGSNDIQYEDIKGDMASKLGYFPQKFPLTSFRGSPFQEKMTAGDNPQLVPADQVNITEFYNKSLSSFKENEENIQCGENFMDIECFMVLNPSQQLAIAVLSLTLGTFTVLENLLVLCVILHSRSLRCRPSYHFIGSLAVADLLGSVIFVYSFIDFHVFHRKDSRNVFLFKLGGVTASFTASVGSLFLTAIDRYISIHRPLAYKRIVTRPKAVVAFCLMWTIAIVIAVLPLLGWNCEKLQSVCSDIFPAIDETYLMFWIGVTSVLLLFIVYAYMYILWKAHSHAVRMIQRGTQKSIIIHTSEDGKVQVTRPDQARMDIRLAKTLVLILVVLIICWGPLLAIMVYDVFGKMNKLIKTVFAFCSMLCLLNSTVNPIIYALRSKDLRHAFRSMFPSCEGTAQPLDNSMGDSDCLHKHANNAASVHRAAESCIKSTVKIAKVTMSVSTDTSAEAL
T4 sequence (P21554 whole entry P269A): as the sequence (P21554 whole entry H270A) above, with P269A, A270H counted along it
T2 sequence (P21554 whole entry F268W): as the sequence (P21554 whole entry H270A) above, with F268W, A270H counted along it
T1 sequence (P21554 whole entry): as the sequence (P21554 whole entry H270A) above, with A270H counted along it
T3 sequence (P21554 whole entry I271A): as the sequence (P21554 whole entry H270A) above, with A270H, I271A counted along it

Work on `CS(=O)(=O)N(c1cc(F)cc(F)c1)C1CN(C(c2ccc(Cl)cc2)c2ccc(Cl)cc2)C1` [AVE1625, N-{1-[bis(4-chloro-phenyl)-methyl]azetidin-3-yl}-N-(3,5-difluorophenyl)methanesulfonamide] yielded a Ki [1] of 1.2 nM, a Ki [2] of 0.64 nM and a Ki [3] of 2.2 nM. For the same molecule, the “loss in affinity relative to wild-type receptor” value [3] was 3 fold, the Ki [4] was 1.8 nM and the “loss in affinity relative to wild-type receptor” value [4] was 3 fold. The Ki [5] was 0.88 nM.
With `CCCCCc1ccc(-n2nc(C(=O)NN3CCCCC3)c(C)c2-c2ccc(Cl)cc2)cc1` [O-1255] the Ki [1] was 113 nM, the Ki [3] was 310 nM and the “loss in affinity relative to wild-type receptor” value [3] was 4 fold. For the same molecule, the Ki [4] was 460 nM, the “loss in affinity relative to wild-type receptor” value [4] was 6 fold and the Ki [5] was 74.7 nM.
For `CC1=CCC2C(C1)c1c(O)cc(C(C)(C)C)cc1OC2(C)C` (stereo not drawn) [JWH179, 3-(1′,1′-dimethylethyl)-Δ8-tetrahydrocannabinol], the Ki [1] was 90 nM, the Ki [3] was 1110 nM and the Ki [4] was 194 nM. For the same molecule, the Ki [5] was 798 nM.
In the case of `CC1=CC[C@@H]2[C@@H](C1)c1ccc(CC#CCCCNS(C)(=O)=O)cc1OC2(C)C` [O-2050, (6aR,10aR)-3-(1-methanesulfonylamino-4-hexyn-6-yl)-6a,7, 10,10a-tetrahydro-6,6,9-trimethyl-6H-dibenzo[b,d]pyran], the Ki [1] is reported as 40.2 nM, the “reduced affinity relative to wild-type receptor” value ([1]; H270A receptor vs WT) is reported as 12 fold and the Ki [2] is reported as 3.4 nM. For the same molecule, the Ki [3] was 148 nM, the “loss in affinity relative to wild-type receptor” value [3] was 44 fold and the Ki [4] was 166 nM. For the same molecule, the “loss in affinity relative to wild-type receptor” value [4] was 49 fold, the Ki [5] was 68.6 nM and the “reduced affinity relative to wild-type receptor” value ([5]; P269A receptor vs WT) was 20 fold.
In the case of `O=C(NN1CCCCC1)c1nn(-c2ccc(Cl)cc2Cl)c2c1CCCc1cc(Cl)ccc1-2` [NESS0327], the Ki [1] is reported as 6.1 nM, the Ki [3] is reported as 21 nM and the “loss in affinity relative to wild-type receptor” value [3] is reported as 5 fold. It also gave a Ki [4] of 11.2 nM and a Ki [5] of 3 nM.
For `CCCCCCC(C)(C)c1cc(O)c2c(c1)OC(C)(C)[C@@H]1CC=C(CO)C[C@@H]21` [HU-210, (−)-11-hydroxydimethylheptyl-Δ8-tetrahydrocannabinol], the Ki [1] is listed as 13.8 nM, the Ki [6] is listed as 3.7 nM and the Ki [7] is listed as 22.6 nM. For the same molecule, the Ki [8] was 1670 nM and the Ki [9] was 310 nM.
Work on `CCCCCc1ccc(-c2c(C)c(C(=O)NN3CCCCC3)nn2-c2ccc(Cl)cc2Cl)cc1` [O-1302, [I]N[/I]-(piperidin-1-yl)-1-(2,4-dichlorophenyl)-4-methyl-5-(4-pentylphenyl)-1H-pyrazole-3-carboxamide] yielded a Ki [1] of 2.6 nM, a Ki [3] of 26.2 nM and a Ki [4] of 38.4 nM. For the same molecule, the Ki [5] was 1.1 nM.
Work on `CCCCC(C)c1ccc(-c2c(-c3ccc(Cl)cc3Cl)nn(N3CCCCC3)c2C)cc1` (stereo not drawn) [O-1690, N-(N-piperdyl)-3-(2,4-dichlrophenyl)-4-(4′-(1′-methylpentyl)phenyl)-5-methylpyrazole] yielded a Ki [1] of 2 nM, a Ki [3] of 23.3 nM and a Ki [4] of 77.3 nM. It also gave a Ki [5] of 0.96 nM.
Molecule `CCCCC(C)(C)c1cc(O)c2c(c1)OC(C)(C)C1CC=C(C)CC21` (stereo not drawn) [JWH061, 3-(1′,1′-dimethylpentyl)-Δ;8-tetrahydrocannabinol] has a Ki [1] of 373 nM, a Ki [3] of 3460 nM and a Ki [4] of 773 nM. It also gave a Ki [5] of 1730 nM.
Work on `N#Cc1c(Oc2cccc(OS(=O)(=O)CCCC(F)(F)F)c2)cccc1C(F)(F)F` [BAY593074, 3-[2-cyano-3-(trifluoromethyl)phenoxy]phenyl-4,4,4-trifluoro-1-butanesulfonate] yielded a Ki [1] of 412 nM, a Ki [2] of 249 nM and a Ki [3] of 1860 nM. For the same molecule, the Ki [4] was 2870 nM, the “binding affinity diminished relative to wild-type receptor (up to)” value [4] was “up to 12 fold” and the Ki [5] was 341 nM.
